Reference: ChEMBL document CHEMBL5380816, “Inclusion of Nitrofurantoin into the Realm of Cancer Chemotherapy via Biology-Oriented Synthesis and Drug Repurposing” (J Med Chem, 2023)
Active and inactive are the calls of the source. No cut-off for these calls is given here.

What was measured:
Caco-2 [1] = assay: Anticancer activity against human Caco-2 cells assessed as smaller cells incubated at 0.11 uM for 72 hrs by phase contrast inverted microscopic analysis; type: functional, cell-based
MCF7 [2] = assay: Anticancer activity against human MCF7 cells assessed as absence of normal spindle shape incubated at 0.11 uM for 72 hrs by phase contrast inverted microscopic analysis; type: functional, cell-based
HepG2 [3] = assay: Anticancer activity against human HepG2 cells assessed as absence of normal spindle shape incubated at 0.11 uM for 72 hrs by phase contrast inverted microscopic analysis; type: functional, cell-based
Caco-2 [4] = assay: Induction of apoptosis in human Caco-2 cells assessed as late apoptotic cells incubated at 0.11 uM for 72 hrs by annexin V-FITC based propidium iodide dual staining assay (reference value: 0.02%); type: functional
Caco-2 [5] = assay: Induction of apoptosis in human Caco-2 cells assessed as necrotic cells incubated at 0.11 uM for 72 hrs by annexin V-FITC based propidium iodide dual staining assay (reference value: 0.02%); type: functional
HeLa [6] = assay: Induction of apoptosis in human HeLa cells assessed as late apoptotic cells incubated at 0.11 uM for 72 hrs by annexin V-FITC based propidium iodide dual staining assay (reference value: 0%); type: functional
MCF7 [7] = assay: Induction of apoptosis in human MCF7 cells assessed as early apoptotic cells by measuring bright green patch incubated at 0.11 uM for 72 hrs by acridine orange-ethidium bromide dual staining based fluorescence microscopic analysis; type: functional, cell-based
HeLa [8] = assay: Induction of apoptosis in human HeLa cells assessed as early apoptotic cells by measuring bright green patch incubated at 0.11 uM for 72 hrs by acridine orange-ethidium bromide dual staining based fluorescence microscopic analysis; type: functional, cell-based
MCF7 [9] = assay: Induction of oxidative stress in human MCF7 cells assessed as cell death by measuring redox alteration fluorescence incubated at 0.097 uM for 72 hrs in presence of dihydro dichlorofluorescein diacetate by DCFH-DA based flow cytometric analysis relative to control; type: functional
dsDNA = assay: Induction of damage in dsDNA (unknown origin) assessed as disrupted by DNA by measuring decrease in fluorescence intensity at 100 uM incubated for 50 mins by EvaGreen based fluorescence plate reader analysis; type: nucleic-acid assay
Homo sapiens = species: Homo sapiens; assay: Selectivity index, ratio IC50 for human MDA-MB-231 cells to IC50 for human MCF7 cells
HepG2 [10] = assay: Induction of apoptosis in human HepG2 cells assessed as pro-oxidant effect by measuring free radical generation measured at 0.11 uM after 72 hrs; type: functional, cell-based
HeLa [11] = assay: Induction of apoptosis in human HeLa cells assessed as viable cells incubated at 0.017 uM for 72 hrs by annexin V-FITC based propidium iodide dual staining assay (reference value: 97.23%); type: functional; settings: read-out: Activity
MCF7 [12] = assay: Induction of apoptosis in human MCF7 cells assessed as total apoptotic cells incubated at 0.017 uM for 72 hrs by annexin V-FITC based propidium iodide dual staining assay (reference value: 0.04 %); type: functional
HeLa [13] = assay: Induction of apoptosis in human HeLa cells assessed as total apoptotic cells incubated at 0.017 uM for 72 hrs by annexin V-FITC based propidium iodide dual staining assay (reference value: 0 +/- 0.035%); type: functional
HeLa [14] = assay: Induction of apoptosis in human HeLa cells assessed as caspase3/7 activation at 0.017 uM using caspase-glo 3/7 as substrate relative to control; type: functional
Caco-2 [15] = assay: Anticancer activity against human Caco-2 cells assessed as losing contact with neighbouring cells incubated at 0.098uM for 72 hrs by phase contrast inverted microscopic analysis; type: functional, cell-based
Caco-2 [16] = assay: Anticancer activity against human Caco-2 cells assessed as absence of normal spindle shape incubated at 0.098uM for 72 hrs by phase contrast inverted microscopic analysis; type: functional, cell-based
MCF7 [17] = assay: Anticancer activity against human MCF7 cells assessed as absence of normal spindle shape incubated at 0.098uM for 72 hrs by phase contrast inverted microscopic analysis; type: functional, cell-based
HepG2 [18] = assay: Anticancer activity against human HepG2 cells assessed as smaller cells incubated at 0.098uM for 72 hrs by phase contrast inverted microscopic analysis; type: functional, cell-based
HepG2 [19] = assay: Anticancer activity against human HepG2 cells assessed as cell shrinkage incubated at 0.098uM for 72 hrs by phase contrast inverted microscopic analysis; type: functional, cell-based
Caco-2 [20] = assay: Induction of apoptosis in human Caco-2 cells assessed as late apoptotic cells incubated at 0.098 uM for 72 hrs by annexin V-FITC based propidium iodide dual staining assay (reference value: 0.02%); type: functional
MCF7 [21] = assay: Induction of apoptosis in human MCF7 cells assessed as early apoptotic cells incubated at 0.098 uM for 72 hrs by annexin V-FITC based propidium iodide dual staining assay (reference value: 0.06%); type: functional
HeLa [22] = assay: Induction of apoptosis in human HeLa cells assessed as early apoptotic cells incubated at 0.098 uM for 72 hrs by annexin V-FITC based propidium iodide dual staining assay (reference value: 2.77%); type: functional
HepG2 [23] = assay: Induction of apoptosis in human HepG2 cells assessed as late apoptotic cells incubated at 0.098 uM for 72 hrs by annexin V-FITC based propidium iodide dual staining assay (reference value: 0.66%); type: functional
HeLa [24] = assay: Induction of apoptosis in human HeLa cells assessed as caspase3/7 activation at 0.098 uM using caspase-glo 3/7 as substrate relative to control; type: functional
Caco-2 [25] = assay: Anticancer activity against human Caco-2 cells assessed as smaller cells incubated at 0.097uM for 72 hrs by phase contrast inverted microscopic analysis; type: functional, cell-based
MCF7 [26] = assay: Anticancer activity against human MCF7 cells assessed as losing contact with neighbouring cells incubated at 0.097uM for 72 hrs by phase contrast inverted microscopic analysis; type: functional, cell-based
HepG2 [27] = assay: Anticancer activity against human HepG2 cells assessed as round cells incubated at 0.097uM for 72 hrs by phase contrast inverted microscopic analysis; type: functional, cell-based
HepG2 [28] = assay: Anticancer activity against human HepG2 cells assessed as absence of normal spindle shape incubated at 0.097uM for 72 hrs by phase contrast inverted microscopic analysis; type: functional, cell-based
Caco-2 [29] = assay: Induction of apoptosis in human Caco-2 cells assessed as viable cells incubated at 0.097 uM for 72 hrs by annexin V-FITC based propidium iodide dual staining assay (reference value: 99.89%); type: functional; settings: read-out: Activity
HepG2 [30] = assay: Induction of apoptosis in human HepG2 cells assessed as early apoptotic cells by measuring bright green patch incubated at 0.097 uM for 72 hrs by acridine orange-ethidium bromide dual staining based fluorescence microscopic analysis; type: functional, cell-based
Caco-2 [31] = assay: Induction of apoptosis in human Caco-2 cells assessed as late apoptotic cells by measuring orange to red patch incubated at 0.097 uM for 72 hrs by acridine orange-ethidium bromide dual staining based fluorescence microscopic analysis; type: functional, cell-based
HepG2 [32] = assay: Induction of oxidative stress in human HepG2 cells assessed as cell death by measuring redox alteration fluorescence incubated at 0.098 uM for 72 hrs in presence of dihydro dichlorofluorescein diacetate by DCFH-DA based flow cytometric analysis relative to control; type: functional
Caco-2 [33] = assay: Induction of oxidative stress in human Caco-2 cells assessed as cell death by measuring redox alteration fluorescence incubated at 0.017 uM for 72 hrs in presence of dihydro dichlorofluorescein diacetate by DCFH-DA based flow cytometric analysis relative to control; type: functional
Caco-2 [34] = assay: Induction of apoptosis in human Caco-2 cells assessed as increase in Bax expression level relative to control; type: functional
MCF7 [35] = assay: Induction of apoptosis in human MCF7 cells assessed as increase in Bax expression level relative to control; type: functional

## C#CCN1C(=O)CN(/N=C/c2ccc([N+](=O)[O-])o2)C1=O
Caco-2 [1]
  Activity: Active
MCF7 [2]
  Activity: Active
HepG2 [3]
  Activity: Active
Caco-2 [4]
  Activity: 42.24%
Caco-2 [5]
  Activity: 0.57%
HeLa [6]
  Activity: 22.69%
MCF7 [7]
  Activity: Active
HeLa [8]
  Activity: Active
MCF7 [9]
  Activity: 35.5%
dsDNA
  Activity: Active
Homo sapiens
  Ratio IC50: 2
HepG2 [10]
  Activity: Active

## O=c1[nH]cc(F)c(=O)[nH]1 [FLUOROURACIL]
HeLa [11]
  viability at 0.017 µM: 88.1%
MCF7 [12]
  Activity: 2.94%
HeLa [13]
  Activity: 4.29%
HeLa [14]
  Activity: 12%

## O=C(CN1C(=O)CN(/N=C/c2ccc([N+](=O)[O-])o2)C1=O)c1ccc(Cl)cc1
Caco-2 [15]
  Activity: Active
Caco-2 [16]
  Activity: Active
MCF7 [17]
  Activity: Active
HepG2 [18]
  Activity: Active
HepG2 [19]
  Activity: Active
Caco-2 [20]
  Activity: 27.58%
MCF7 [21]
  Activity: 4.77%
HeLa [22]
  Activity: 6.1%
HepG2 [23]
  Activity: 34.89%
HeLa [24]
  Activity: 75%

## NS(=O)(=O)c1ccc(-n2cc(CN3C(=O)CN(/N=C/c4ccc([N+](=O)[O-])o4)C3=O)nn2)cc1
Caco-2 [25]
  Activity: Active
MCF7 [26]
  Activity: Active
HepG2 [27]
  Activity: Active
HepG2 [28]
  Activity: Active
Caco-2 [29]
  viability at 0.097 µM: 32.8%
HepG2 [30]
  Activity: Active
Caco-2 [31]
  Activity: Active
HepG2 [32]
  Activity: 48.51%
Caco-2 [33]
  Activity: 22.21%
Caco-2 [34]
  Activity: 300%
MCF7 [35]
  Activity: 300%
